Reference: patent US20170087106A1, “Method for supporting gut health” (priority 2015, published 2017)
Marks after values point to notes of the source that are not given here.

What was measured:
[1] = tested on: experimental model of irritable bowel syndrome (IBS) in rats induced by deoxycholic acid (DCA); assay: DCA-induced IBS in rats: abdominal withdrawal reflex to colorectal distension (CRD); assay type: in vivo, rat; conditions: oral daily, mean ± SEM
Protocol: (§1) Male Sprague Dawley rats (240-320 g) were administered DCA once daily on 3 consecutive days, and then divided into the different experimental groups (n=8): three received orally and daily CPM (40 and 100 mg/kg) or Gabapentin (70 mg/kg); a non IBS and an untreated control IBS group were also included. One and two weeks after, abdominal withdrawal reflex to colorectal distension (CRD) was semi quantitatively scored. Also the referred pain was evaluated with Von Frey filaments. After two weeks of treatment, all rats were sacrificed and the expression of different markers IL-1β and COX-2 evaluated in the colonic tissue by qPCR.

[2] = tested on: experimental model of irritable bowel syndrome (IBS) in rats induced by deoxycholic acid (DCA); assay: DCA-induced IBS in rats: referred pain with Von Frey filaments (AUC); assay type: in vivo, rat; conditions: for AUC: oral daily, mean ± SEM
Protocol: as §1

[3] = tested on: IL-1β; assay: DCA-induced IBS in rats: colonic IL-1β expression by qPCR; assay type: in vivo, rat; conditions: colonic tissue, two weeks oral daily, mean ± SEM
Protocol: as §1

[4] = tested on: COX-2; assay: DCA-induced IBS in rats: colonic COX-2 expression by qPCR; assay type: in vivo, rat; conditions: colonic tissue, two weeks oral daily, mean ± SEM
Protocol: as §1

[5] = tested on: TNBS experimental rat colitis; assay: TNBS rat colitis: colonic macroscopic damage score and weight/length ratio; assay type: in vivo; conditions: for Damage Score (0-10) / Weight/length: TNBS rat colitis, oral daily 7 days, mean ± SEM; for Weight/length: colon
Protocol: (§2) Female Wistar rats (180-200 g) were randomly assigned to nine groups (n=10). Three groups received treatment with CaPyr (20, 40 and 100 mg/kg); other three received treatment with ethyl pyruvate (20, 40 and 100 mg/kg); and the remaining was treated with sulphasalazine (30 mg/kg). All compounds were dissolved in 1 ml of carboxymethylcellulose (0.2%) in water solution, and administered daily by oral gavage. An untreated TNBS control group and a non-colitic group were included for reference, which received the vehicle used to administer the test compounds. Colonic inflammation was induced in control and treated groups as generally described (see Galvez et al. 2014). Briefly, rats were fasted overnight, anesthetized with halothane and given TNBS dissolved in 0.25 ml of 50% ethanol (v/v) by means of a Teflon cannula inserted 8 cm through the anus. During and after TNBS administration, the rats were kept in a head-down position until they recovered from anaesthesia, and then returned to their cages. Rats from the non-colitic group were administered intracolonically 0.25 ml of phosphate buffered saline instead of TNBS. The treatments were given from the day of the colitis induction until the sacrifice of the rats with an overdose of halothane, seven days later. Animal body weights, occurrence of diarrhoea, and water and food intake were recorded daily throughout all the experiments. Once the animals were sacrificed, the colon was removed aseptically and placed on an ice-cold plate, longitudinally opened and cleaned from their luminal contents with cold saline. Afterwards, it was weighed and its length measured under a constant load (2 g). Each colon was scored for macroscopically visible damage on a 0-10 scale by two observers unaware of the experiment, according to the criteria described before (see Galvez et al. 2014). Colon samples (0.5 cm^2) containing all the layers were taken from a region of the inflamed colon corresponding to the adjacent segment to the gross macroscopic damage and were fixed in 4% buffered formaldehyde for the histological studies. Equivalent colonic segments were also obtained from the non-colitic group. The colon was subsequently minced, aliquoted and kept frozen at −80° C. until biochemical determinations and RNA extraction was performed.

[6] = tested on: myeloperoxidase (MPO); assay: TNBS rat colitis: colonic myeloperoxidase (MPO) activity; assay type: in vivo; conditions: colonic tissue, oral daily 7 days, mean ± SEM
Protocol: as §2
(§3) Myeloperoxidase (MPO) activity was measured according to the technique described previously (Krawiszet al., 1984); the results were expressed as MPO units per gram of wet tissue; one unit of MPO activity was defined as that degrading 1 μmol hydrogen peroxide/min at 25° C. Total glutathione (GSH) content was quantified with the recycling assay described by Anderson (1985), and the results were expressed as nmol/g wet tissue. In order to evaluate tissue IL-1β levels, the colonic samples were homogenized in phosphate buffered saline supplemented with 0.1% sodium dodecyl sulfate (SDS), 0.1% sodium deoxycholate, 1% Triton X-100 and protease and phosphatase inhibitors (aprotinin, leupeptin and phenylmethylsulfonyl fluoride). The cytokine was quantified by enzyme-linked immunoabsorbent assay (R&D Systems Inc., Minneapolis, Minn., USA) and the results were expressed as pg/g wet tissue.

[7] = tested on: glutathione (GSH); assay: TNBS rat colitis: colonic total glutathione (GSH) content; assay type: in vivo; conditions: colonic tissue, oral daily 7 days, mean ± SEM
Protocol: as §2, §3

[8] = tested on: TNBS experimental rat colitis; assay: TNBS rat colitis: microscopic (histological) damage score; assay type: in vivo; conditions: oral daily 7 days, mean ± SEM
Protocol: as §2
Cross-sections were selected and embedded in paraffin. Full-thickness sections of 5 μm were obtained at different levels and stained with haematoxylin and eosin. The histological damage was evaluated by a pathologist observer, who was blinded to the experimental groups, according to the criteria previously described by Galvez.

[9] = tested on: IL-1β; assay: TNBS rat colitis: colonic IL-1β by ELISA; assay type: in vivo; conditions: colonic tissue, oral daily 7 days, mean ± SEM
Protocol: as §2, §3

[10] = tested on: IL-1β; assay: TNBS rat colitis: colonic IL-1β mRNA by real-time PCR; assay type: in vivo; conditions: colon, oral daily 7 days, mean ± SEM
Protocol: as §2
(§4) Analysis of gene expression in colonic samples by RT-qPCR Total RNA from colonic samples was isolated using Trizol® (Thermo Fisher Scientific Inc., Waltham, Mass. USA) following the manufacturer's protocol. All RNA samples were quantified with the Thermo Scientific NanoDrop™ 2000 Spectrophotometer (Thermo Fisher Scientific Inc., Waltham, Mass. USA) and […] of RNA were reverse transcribed using oligo(dT) primers (Promega, Southampton, UK).
(§5) Real time quantitative PCR amplification and detection was performed on optical-grade 48 well plates in an Eco™ Real-Time PCR System (Illumina, CA, USA) with 20 ng of cDNA, the KAPA SYBR® FAST qPCR Master Mix (Illumina, CA, USA) and specific primers at their annealing temperature (Ta). To normalize mRNA expression, the expression of the housekeeping gene, glyceraldehyde-3-phosphate dehydrogenase (GAPDH) was measured. The mRNA relative quantitation was calculated using the ΔΔCt method.

[11] = tested on: IL-6; assay: TNBS rat colitis: colonic IL-6 mRNA by real-time PCR; assay type: in vivo; conditions: colon, oral daily 7 days, mean ± SEM
Protocol: as §2, §4, §5

[12] = tested on: IL-12; assay: TNBS rat colitis: colonic IL-12 mRNA by real-time PCR; assay type: in vivo; conditions: colon, oral daily 7 days, mean ± SEM
Protocol: as §2, §4, §5

[13] = tested on: IL-17; assay: TNBS rat colitis: colonic IL-17 mRNA by real-time PCR; assay type: in vivo; conditions: colon, oral daily 7 days, mean ± SEM
Protocol: as §2, §4, §5

[14] = tested on: IL-23; assay: TNBS rat colitis: colonic IL-23 mRNA by real-time PCR; assay type: in vivo; conditions: colon, oral daily 7 days, mean ± SEM
Protocol: as §2, §4, §5

[15] = tested on: iNOS; assay: TNBS rat colitis: colonic iNOS mRNA by real-time PCR; assay type: in vivo; conditions: colon, oral daily 7 days, mean ± SEM
Protocol: as §2, §4, §5

[16] = tested on: CINC-1; assay: TNBS rat colitis: colonic CINC-1 mRNA by real-time PCR; assay type: in vivo; conditions: colon, oral daily 7 days, mean ± SEM
Protocol: as §2, §4, §5

[17] = tested on: MCP-1; assay: TNBS rat colitis: colonic MCP-1 mRNA by real-time PCR; assay type: in vivo; conditions: colon, oral daily 7 days, mean ± SEM
Protocol: as §2, §4, §5

[18] = tested on: ICAM-1; assay: TNBS rat colitis: colonic ICAM-1 mRNA by real-time PCR; assay type: in vivo; conditions: colon, oral daily 7 days, mean ± SEM
Protocol: as §2, §4, §5

[19] = tested on: MUC-2; assay: TNBS rat colitis: colonic MUC-2 mRNA by real-time PCR; assay type: in vivo; conditions: colon, oral daily 7 days, mean ± SEM
Protocol: as §2, §4, §5

[20] = tested on: TFF-3; assay: TNBS rat colitis: colonic TFF-3 mRNA by real-time PCR; assay type: in vivo; conditions: colon, oral daily 7 days, mean ± SEM
Protocol: as §2, §4, §5

calcium pyruvate monohydrate [CPM]
CRD ([1]; 40 mg/kg): 1.30 ± 0.14^c units
CRD ([1]; 100 mg/kg): 0.70 ± 0.14^a,c units
referred pain (in words) ([2]; Von Frey filaments): attenuated
AUC ([2]; 40 mg/kg): 104.65 ± 20.48^a arbitrary units
AUC ([2]; 100 mg/kg): 63.70 ± 22.75^a arbitrary units
qPCR IL-1β ([3]; 40 mg/kg): 7.82 ± 2.07^c fold increase
qPCR IL-1β ([3]; 100 mg/kg): 5.52 ± 1.15^c fold increase
qPCR COX-2 ([4]; 40 mg/kg): 2.47 ± 0.58^c fold increase
qPCR COX-2 ([4]; 100 mg/kg): 1.60 ± 0.36^c fold increase

CCOC(=O)C(C)=O [EtPyr, ethyl pyruvate]
Damage Score (0-10) ([5]; 20 mg/kg): 6.6 ± 0.6
Damage Score (0-10) ([5]; 40 mg/kg): 6.1 ± 0.4
Damage Score (0-10) ([5]; 100 mg/kg): 6.0 ± 0.5
Weight/length ([5]; 20 mg/kg): 185.4 ± 31.1 mg/cm
Weight/length ([5]; 40 mg/kg): 172.0 ± 15.8 mg/cm
Weight/length ([5]; 100 mg/kg): 186.4 ± 13.2 mg/cm
effect in TNBS-induced colitis (in words) ([5]; rats, 20, 40 and 100 mg/kg body weight, 7 days oral treatment): intestinal anti-inflammatory effects
MPO ([6]; 20 mg/kg): 58.1 ± 11.9 mU/g tissue
MPO ([6]; 40 mg/kg): 61.5 ± 9.8 mU/g tissue
MPO ([6]; 100 mg/kg): 54.7 ± 10.8 mU/g tissue
GSH ([7]; 20 mg/kg): 560 ± 74 nmol/g tissue
GSH ([7]; 40 mg/kg): 715 ± 88 nmol/g tissue
GSH ([7]; 100 mg/kg): 870 ± 124 nmol/g tissue
Microscopic Damage Score (0-59) ([8]; 20 mg/kg): 25 ± 3
Microscopic Damage Score (0-59) ([8]; 40 mg/kg): 17 ± 3
Microscopic Damage Score (0-59) ([8]; 100 mg/kg): 23 ± 3
IL-1β (ELISA) ([9]; 20 mg/kg): 975.0 ± 90.1 ng/g tissue
IL-1β (ELISA) ([9]; 40 mg/kg): 1140.0 ± 150.1 ng/g tissue
IL-1β (ELISA) ([9]; 100 mg/kg): 975.0 ± 211.7 ng/g tissue
IL-1β mRNA expression ([10]; 20 mg/kg): 6.90 ± 1.50 fold increase
IL-1β mRNA expression ([10]; 40 mg/kg): 7.20 ± 1.20 fold increase
IL-1β mRNA expression ([10]; 100 mg/kg): 10.21 ± 1.50 fold increase
IL-6 mRNA expression ([11]; 20 mg/kg): 5.60 ± 1.41 fold increase
IL-6 mRNA expression ([11]; 40 mg/kg): 5.60 ± 1.20 fold increase
IL-6 mRNA expression ([11]; 100 mg/kg): 6.00 ± 1.01 fold increase
IL-12 mRNA expression ([12]; 20 mg/kg): 1.09 ± 0.13 fold increase
IL-12 mRNA expression ([12]; 40 mg/kg): 1.81 ± 0.48 fold increase
IL-12 mRNA expression ([12]; 100 mg/kg): 1.62 ± 0.37 fold increase
IL-17 mRNA expression ([13]; 20 mg/kg): 1.17 ± 0.27 fold increase
IL-17 mRNA expression ([13]; 40 mg/kg): 1.74 ± 0.33 fold increase
IL-17 mRNA expression ([13]; 100 mg/kg): 2.34 ± 0.30 fold increase
IL-23 mRNA expression ([14]; 20 mg/kg): 1.68 ± 0.39 fold increase
IL-23 mRNA expression ([14]; 40 mg/kg): 1.56 ± 0.27 fold increase
IL-23 mRNA expression ([14]; 100 mg/kg): 1.80 ± 0.21 fold increase
iNOS mRNA expression ([15]; 20 mg/kg): 16.17 ± 2.75 fold increase
iNOS mRNA expression ([15]; 40 mg/kg): 12.20 ± 1.53 fold increase
iNOS mRNA expression ([15]; 100 mg/kg): 22.88 ± 2.14 fold increase
CINC-1 mRNA expression ([16]; 20 mg/kg): 4.40 ± 0.65 fold increase
CINC-1 mRNA expression ([16]; 40 mg/kg): 4.40 ± 0.57 fold increase
CINC-1 mRNA expression ([16]; 100 mg/kg): 4.40 ± 0.90 fold increase
MCP-1 mRNA expression ([17]; 20 mg/kg): 1.23 ± 0.37 fold increase
MCP-1 mRNA expression ([17]; 40 mg/kg): 1.85 ± 0.29 fold increase
MCP-1 mRNA expression ([17]; 100 mg/kg): 2.21 ± 0.29 fold increase
ICAM-1 mRNA expression ([18]; 20 mg/kg): 1.39 ± 0.19 fold increase
ICAM-1 mRNA expression ([18]; 40 mg/kg): 2.27 ± 0.38 fold increase
ICAM-1 mRNA expression ([18]; 100 mg/kg): 2.39 ± 0.50 fold increase
MUC-2 mRNA expression ([19]; 20 mg/kg): 0.39 ± 0.09 fold increase
MUC-2 mRNA expression ([19]; 40 mg/kg): 0.70 ± 0.08 fold increase
MUC-2 mRNA expression ([19]; 100 mg/kg): 0.50 ± 0.11 fold increase
TFF-3 mRNA expression ([20]; 20 mg/kg): 0.59 ± 0.16 fold increase
TFF-3 mRNA expression ([20]; 40 mg/kg): 1.01 ± 0.05 fold increase
TFF-3 mRNA expression ([20]; 100 mg/kg): 0.96 ± 0.11 fold increase
